Where two headings read alike, the source gives them in different places. Square brackets hold non-standard residues; d marks the D form. Peptide text beside a SMILES is read from it. Aib = CC(C)(N)C(=O)O
Key:
human GLP-1 receptor = molecular target: T1, human GLP-1 receptor (Homo sapiens, UniProt P43220); test: GLP-1 receptor potency assay (cAMP AlphaScreen, HEK293 cells stably expressing GLP-1R); assay type: cell-based; settings: cAMP response, HEK293 cells expressing human GLP-1R; read-out: EC50 GLP-1
T1 construct: expressed in transfected cells
Outline: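 cAMP accumulation was quantified by AlphaScreen in G418-selected HEK293 cells stably transfected with human GLP-1R cDNA. Concentration-response data were normalized between vehicle and positive control. EC50 and maximal response came from 4PL curve fitting.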

[1] = Solubility assessment by turbidity absorbance at 325 nm; assay type: physicochemical; settings: 1 mg/ml peptide
Protocol: A stock solution of the test peptide (2 mg/ml; determined from the weighed amount of peptide) in demineralized water adjusted to pH 2.5 with HCl was prepared, and aliquots were diluted 1:1 in 100 mM acetate buffer (pH 4.0 and pH 5.0), 100 mM histidine buffer (pH 6.0 and pH 7.0) and 100 mM phosphate buffer (pH 6.0, pH 7.0 and pH7.5), respectively, and loaded in a standard flat-bottom, non-sterile 96-well UV Microplate. The absorbance of samples (single samples, n=1) at 280 and 325 nm was measured in an absorbance-based plate reader, which was preheated to ambient temperature (typically 25° C.).

human GLP-2 receptor = molecular target: T2, human GLP-2 receptor (Homo sapiens, UniProt O95838, D470N); test: GLP-2 receptor potency assay (cAMP AlphaScreen, HEK293 cells stably expressing GLP-2R); assay type: cell-based; settings: cAMP response, HEK293 cells expressing human GLP-2R
T2 sequence (O95838 1-553 D470N): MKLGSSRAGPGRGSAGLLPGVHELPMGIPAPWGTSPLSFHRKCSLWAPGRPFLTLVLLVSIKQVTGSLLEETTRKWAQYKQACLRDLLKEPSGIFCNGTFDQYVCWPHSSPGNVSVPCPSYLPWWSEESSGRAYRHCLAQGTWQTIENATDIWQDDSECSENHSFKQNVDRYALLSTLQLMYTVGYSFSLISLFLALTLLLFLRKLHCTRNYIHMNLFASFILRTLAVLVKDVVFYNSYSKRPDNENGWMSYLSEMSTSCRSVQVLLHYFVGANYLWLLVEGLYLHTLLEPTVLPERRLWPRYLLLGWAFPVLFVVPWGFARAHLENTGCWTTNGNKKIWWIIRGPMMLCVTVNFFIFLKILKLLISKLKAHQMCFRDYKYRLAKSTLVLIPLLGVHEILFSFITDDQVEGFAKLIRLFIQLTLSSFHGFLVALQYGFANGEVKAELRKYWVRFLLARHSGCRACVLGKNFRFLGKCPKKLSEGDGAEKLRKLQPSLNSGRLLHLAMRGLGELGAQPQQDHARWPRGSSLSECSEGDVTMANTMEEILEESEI
Outline: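 EC50 and maximal response were fitted with a 4PL model after normalization to positive control and vehicle. cAMP accumulation was quantified by AlphaScreen in a stable HEK293 clone transfected with human GLP-2 receptor.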

[2] = 100 mM acetate buffer pH 4.0, ambient temperature, read-out: Solubility, Acetate buffer pH 4
[3] = 100 mM acetate buffer pH 5.0, ambient temperature, read-out: Solubility, Acetate buffer pH 5
[4] = 100 mM histidine buffer pH 6.0, ambient temperature, read-out: Solubility, Histidine buffer pH 6
[5] = 100 mM histidine buffer pH 7.0, ambient temperature, read-out: Solubility, Histidine buffer pH 7
[6] = 100 mM phosphate buffer pH 6.0, ambient temperature, read-out: Solubility, Phosphate buffer pH 6
[7] = 100 mM phosphate buffer pH 7.0, ambient temperature, read-out: Solubility, Phosphate buffer pH 7
[8] = 100 mM phosphate buffer pH 7.5, ambient temperature, read-out: Solubility, Phosphate buffer pH 7.5

T1 sequence (P43220 24-463): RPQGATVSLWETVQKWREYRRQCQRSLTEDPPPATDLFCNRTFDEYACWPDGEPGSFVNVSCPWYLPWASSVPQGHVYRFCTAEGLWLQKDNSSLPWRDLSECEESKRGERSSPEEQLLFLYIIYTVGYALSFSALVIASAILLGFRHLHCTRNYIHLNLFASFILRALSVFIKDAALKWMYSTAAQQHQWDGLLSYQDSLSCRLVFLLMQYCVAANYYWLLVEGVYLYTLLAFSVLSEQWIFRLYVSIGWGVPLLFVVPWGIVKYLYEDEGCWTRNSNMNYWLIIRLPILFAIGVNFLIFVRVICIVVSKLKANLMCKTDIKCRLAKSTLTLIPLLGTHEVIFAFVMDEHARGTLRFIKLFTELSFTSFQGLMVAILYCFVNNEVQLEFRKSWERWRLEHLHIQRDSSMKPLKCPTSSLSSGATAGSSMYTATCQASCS

| Structure (SMILES) | EC50 (human GLP-1 receptor) [nM] | solubility [1, 2] [µg/mL] | solubility [1, 3] [µg/mL] | solubility [1, 4] [µg/mL] | solubility [1, 5] [µg/mL] | solubility [1, 6] [µg/mL] | solubility [1, 7] [µg/mL] | solubility [1, 8] [µg/mL] | EC50 (human GLP-2 receptor) [nM] |
| --- | --- | --- | --- | --- | --- | --- | --- | --- | --- |
| CC[C@H](C)[C@H](NC(=O)[C@H](Cc1ccccc1)NC(=O)[C@H](CC(=O)O)NC(=O)[C@H](CCCNC(=N)N)NC(=O)[C@H](C)NC(=O)[C@H](C)NC(=O)[C@H](CCC(N)=O)NC(=O)[C@H](CCC(=O)O)NC(=O)[C@H](CC(=O)O)NC(=O)[C@H](CC(C)C)NC(=O)[C@@H](NC(=O)[C@@H](NC(=O)[C@H](C)NC(=O)[C@H](CC(C)C)NC(=O)[C@H](CCC(=O)O)NC(=O)[C@H](CO)NC(=O)[C@@H](NC(=O)[C@H](Cc1ccccc1)NC(=O)[C@H](CO)NC(=O)CNC(=O)[C@H](CCC(=O)O)NC(=O)C(C)(C)NC(=O)[C@@H](N)Cc1c[nH]cn1)[C@@H](C)O)[C@@H](C)O)[C@@H](C)CC)C(=O)N[C@@H](C)C(=O)N[C@@H](Cc1c[nH]c2ccccc12)C(=O)N[C@@H](CC(C)C)C(=O)N[C@H](C(=O)N[C@@H](Cc1ccc(O)cc1)C(=O)N[C@@H](Cc1c[nH]cn1)C(=O)N[C@@H](CCCCN)C(=O)N[C@H](C(=O)N[C@H](C(=O)N[C@@H](CC(=O)O)C(=O)O)[C@@H](C)O)[C@@H](C)CC)[C@@H](C)CC [Compound 7] (H-H[Aib]EGSFTSELATILDEQAARDFIAWLIYHKITD-OH) | 0.017 | ≥ 1000 | < 1000 | < 1000 | ≥ 1000 | < 1000 | ≥ 1000 | ≥ 1000 | 0.11 |
| CC[C@H](C)[C@H](NC(=O)[C@H](Cc1ccccc1)NC(=O)[C@H](CC(=O)O)NC(=O)[C@H](CCCNC(=N)N)NC(=O)[C@H](C)NC(=O)[C@H](C)NC(=O)[C@H](CCC(N)=O)NC(=O)[C@H](CCC(=O)O)NC(=O)[C@H](CC(=O)O)NC(=O)[C@H](CC(C)C)NC(=O)[C@@H](NC(=O)[C@@H](NC(=O)[C@H](C)NC(=O)[C@H](CC(C)C)NC(=O)[C@H](CCC(=O)O)NC(=O)[C@H](CO)NC(=O)[C@@H](NC(=O)[C@H](Cc1ccccc1)NC(=O)[C@H](CO)NC(=O)CNC(=O)[C@H](CCC(=O)O)NC(=O)C(C)(C)NC(=O)[C@@H](N)Cc1c[nH]cn1)[C@@H](C)O)[C@@H](C)O)[C@@H](C)CC)C(=O)N[C@@H](C)C(=O)N[C@@H](Cc1c[nH]c2ccccc12)C(=O)N[C@@H](CC(C)C)C(=O)N[C@H](C(=O)N[C@@H](CCC(=O)O)C(=O)N[C@@H](Cc1c[nH]cn1)C(=O)N[C@@H](CCCCN)C(=O)N[C@H](C(=O)N[C@H](C(=O)N[C@@H](CC(=O)O)C(=O)O)[C@@H](C)O)[C@@H](C)CC)[C@@H](C)CC [Compound 4] (H-H[Aib]EGSFTSELATILDEQAARDFIAWLIEHKITD-OH) | 0.015 | ≥ 1000 | < 1000 | ≥ 1000 | ≥ 1000 | ≥ 1000 | ≥ 1000 | ≥ 1000 | 0.044 |
| CC[C@H](C)[C@H](NC(=O)[C@H](Cc1ccccc1)NC(=O)[C@H](CC(=O)O)NC(=O)[C@H](CCCNC(=N)N)NC(=O)[C@H](C)NC(=O)[C@H](C)NC(=O)[C@H](CCC(N)=O)NC(=O)[C@H](CCC(=O)O)NC(=O)[C@H](CC(=O)O)NC(=O)[C@H](CC(C)C)NC(=O)[C@@H](NC(=O)[C@@H](NC(=O)[C@H](C)NC(=O)[C@H](CC(C)C)NC(=O)[C@H](CCC(=O)O)NC(=O)[C@H](CO)NC(=O)[C@@H](NC(=O)[C@H](Cc1ccccc1)NC(=O)[C@H](CO)NC(=O)CNC(=O)[C@H](CCC(=O)O)NC(=O)C(C)(C)NC(=O)[C@@H](N)Cc1c[nH]cn1)[C@@H](C)O)[C@@H](C)O)[C@@H](C)CC)C(=O)N[C@@H](C)C(=O)N[C@@H](Cc1c[nH]c2ccccc12)C(=O)N[C@@H](CC(C)C)C(=O)N[C@H](C(=O)N[C@@H](Cc1c[nH]cn1)C(=O)N[C@@H](Cc1c[nH]cn1)C(=O)N[C@@H](CCCCN)C(=O)N[C@H](C(=O)N[C@H](C(=O)N[C@@H](CC(=O)O)C(=O)O)[C@@H](C)O)[C@@H](C)CC)[C@@H](C)CC [Compound 6] (H-H[Aib]EGSFTSELATILDEQAARDFIAWLIHHKITD-OH) | 0.014 | ≥ 1000 | < 1000 | < 1000 | ≥ 1000 | < 1000 | ≥ 1000 | < 1000 | 0.047 |
| CC[C@H](C)[C@H](NC(=O)[C@H](Cc1ccccc1)NC(=O)[C@H](CC(=O)O)NC(=O)[C@H](CCCNC(=N)N)NC(=O)[C@H](C)NC(=O)[C@H](C)NC(=O)[C@H](CCC(N)=O)NC(=O)[C@H](CCC(=O)O)NC(=O)[C@H](CC(=O)O)NC(=O)[C@H](CC(C)C)NC(=O)[C@@H](NC(=O)[C@@H](NC(=O)[C@H](C)NC(=O)[C@H](CC(C)C)NC(=O)[C@H](CCC(=O)O)NC(=O)[C@H](CO)NC(=O)[C@@H](NC(=O)[C@H](Cc1ccccc1)NC(=O)[C@H](CO)NC(=O)CNC(=O)[C@H](CCC(=O)O)NC(=O)C(C)(C)NC(=O)[C@@H](N)Cc1c[nH]cn1)[C@@H](C)O)[C@@H](C)O)[C@@H](C)CC)C(=O)N[C@@H](C)C(=O)N[C@@H](Cc1c[nH]c2ccccc12)C(=O)N[C@@H](CC(C)C)C(=O)N[C@H](C(=O)N[C@@H](CC(C)C)C(=O)N[C@@H](Cc1c[nH]cn1)C(=O)N[C@@H](CCCCN)C(=O)N[C@H](C(=O)N[C@H](C(=O)N[C@@H](CC(=O)O)C(=O)O)[C@@H](C)O)[C@@H](C)CC)[C@@H](C)CC [Compound 8] (H-H[Aib]EGSFTSELATILDEQAARDFIAWLILHKITD-OH) | 0.021 | ≥ 1000 | < 1000 | < 1000 | ≥ 1000 | < 1000 | ≥ 1000 | ≥ 1000 | 0.084 |
| CC[C@H](C)[C@H](NC(=O)[C@H](Cc1ccccc1)NC(=O)[C@H](CC(=O)O)NC(=O)[C@H](CCCNC(=N)N)NC(=O)[C@H](C)NC(=O)[C@H](C)NC(=O)[C@H](CCC(N)=O)NC(=O)[C@H](CCC(=O)O)NC(=O)[C@H](CC(=O)O)NC(=O)[C@H](CC(C)C)NC(=O)[C@@H](NC(=O)[C@@H](NC(=O)[C@H](C)NC(=O)[C@H](CC(C)C)NC(=O)[C@H](CCC(=O)O)NC(=O)[C@H](CO)NC(=O)[C@H](CO)NC(=O)[C@H](Cc1ccccc1)NC(=O)[C@H](CO)NC(=O)CNC(=O)[C@H](CCC(=O)O)NC(=O)C(C)(C)NC(=O)[C@@H](N)Cc1c[nH]cn1)[C@@H](C)O)[C@@H](C)CC)C(=O)N[C@@H](C)C(=O)N[C@@H](Cc1c[nH]c2ccccc12)C(=O)N[C@@H](CC(C)C)C(=O)N[C@H](C(=O)N[C@@H](CCC(N)=O)C(=O)N[C@@H](Cc1c[nH]cn1)C(=O)N[C@@H](CCCCN)C(=O)N[C@H](C(=O)N[C@H](C(=O)N[C@@H](CC(=O)O)C(=O)O)[C@@H](C)O)[C@@H](C)CC)[C@@H](C)CC [Compound 41] (H-H[Aib]EGSFSSELATILDEQAARDFIAWLIQHKITD-OH) | 0.078 |  |  |  |  |  |  |  | 0.026 |
| CC[C@H](C)[C@H](NC(=O)[C@H](CC(C)C)NC(=O)[C@H](Cc1c[nH]c2ccccc12)NC(=O)[C@H](C)NC(=O)[C@@H](NC(=O)[C@H](Cc1ccccc1)NC(=O)[C@H](CC(=O)O)NC(=O)[C@H](CCCNC(=N)N)NC(=O)[C@H](C)NC(=O)[C@H](C)NC(=O)[C@H](CCC(N)=O)NC(=O)[C@H](CCC(=O)O)NC(=O)[C@H](CC(=O)O)NC(=O)[C@H](CC(C)C)NC(=O)[C@@H](NC(=O)[C@@H](NC(=O)[C@H](C)NC(=O)[C@H](CC(C)C)NC(=O)[C@H](CCC(=O)O)NC(=O)[C@H](CO)NC(=O)[C@@H](NC(=O)[C@H](Cc1ccccc1)NC(=O)[C@@H](NC(=O)CNC(=O)[C@H](CCC(=O)O)NC(=O)C(C)(C)NC(=O)[C@@H](N)Cc1c[nH]cn1)[C@@H](C)O)[C@@H](C)O)[C@@H](C)O)[C@@H](C)CC)[C@@H](C)CC)C(=O)N[C@@H](C)C(=O)N[C@@H](Cc1c[nH]cn1)C(=O)N[C@@H](CCCCN)C(=O)N[C@H](C(=O)N[C@H](C(=O)N[C@@H](CC(=O)O)C(=O)O)[C@@H](C)O)[C@@H](C)CC [Compound 3] (H-H[Aib]EGTFTSELATILDEQAARDFIAWLIAHKITD-OH) | 0.0074 | ≥ 1000 | < 1000 | ≥ 1000 | ≥ 1000 | ≥ 1000 | ≥ 1000 | ≥ 1000 | 0.036 |

From patent US11130793B2, “GLP-1/GLP-2 dual agonists” (Zealand Pharma A/S, priority 2016, dated 2021)
